# Results published in patent publication US12239645B2, “Targeted dosing for the treatment of complement mediated disorders” (Achillion Pharmaceuticals, Inc., priority 2018, dated 2025).
# Read-outs that look alike come from different tables or passages of the source.
# System: complement alternative pathway (AP) activity
# Assay: MAD study: ex vivo serum AP hemolysis activity and PK-PD analysis
# Format: in vivo, human
# Settings: for minimum AP activity following dosing: Days 7 and 14
# Procedure: Ex vivo serum AP hemolysis assays were conducted in 96-well microtiter plates divided into two parts, one for hemolysis and the other for serum background color subtraction. Briefly, a suspension of rabbit red blood cells (RBCs) was centrifuged at 800×g at 4° C. for 3 minutes and the supernatant was removed to get rid of the RBC debris. The RBC cell pellet was re-suspended gently with pre-chilled gelatin veronal buffer (GVB0) containing 10 mM MgEGTA to a density of 5×10^8 cells/mL. Other controls including buffer, spontaneous rabbit RBC lysis, 100% RBC lysis (in water), and normal serum control were set up alongside the test samples as well. Serum was placed in a 37° C. water-bath until mostly thawed and immediately transferred to ice bath. 20% serum was prepared with GVB0-MgEGTA buffer and kept at ice bath before testing. Reactions were carried out in a 96 well plate by mixing 50 μl of 20% serum with equal volume of GVB0-MgEGTA buffer and then quickly adding 20 μl of RBC suspension. The plate was shaken on a microtiter plate shaker for 5 seconds and then incubated at 37° C. for 30 minutes. Halfway during the incubation period, the plate was shaken for another 5 seconds as described above. At the end of the incubation, the plate was centrifuged at 800×g at 4° C. for 3 minutes to pellet the un-lysed rabbit RBCs. 80 μl of supernatant was removed carefully from all wells and transferred to a clear flat-bottom microtiter plate for the measurement of optical absorbance at 405 nm (A405) in a Molecular Devices Spectramax Plus plate reader. AP hemolysis in each well was calculated relative to the activity of the NHS reference sample formulas as follows: Hemolysis (%)=((Hm−Bk)−(Sp−Bf))/((NH−BkNH)−(Sp−Bf))×100%
# where Hm=A405 in the hemolysis well, Bk=A405 in the corresponding background well, Sp=mean A405 in the spontaneous hemolysis wells, Bf=mean A405 in the buffer alone wells, NH=mean A405 in the reference NHS wells, and BkNH=mean A405 in the corresponding background wells.
# The PK-PD relationship was evaluated using time-matched plasma Compound 1 concentrations and serum AP inhibition values by non-linear regression with GraphPad Prism (La Jolla, CA) using the following two models: • 1. The simple Emax model to determine the 50% effective concentration (EC50): Y=E0+Emax×X/(EC50+X) where X=plasma Compound 1 concentration, Y=percent inhibition in the corresponding serum sample, E0=0% inhibition (pre-dose AP activity), and Emax=100% inhibition. • 2. The four-parameter sigmoidal model to determine EC50 and the 90% effective concentration (EC90): Y=E0+(Emax−E0)/(1+10^((Log EC50−X)×HillSlope)) where X, Y, E0, and Emax are defined as above (Emax model) and HillSlope=the slope factor or Hill slope. Pharmacodynamic and Pharmacokinetic Results AP Activity Measured with AP Hemolysis
# A multiple ascending dose (MAD) study of Compound 1 with two additional single-dose cohorts was also completed. […] Secondary objectives included evaluation of the pharmacokinetic (PK) profile and the relationship between Compound 1 PK and pharmacodynamic (PD) characteristics, that is, the inhibition of complement alternative pathway (AP) activity (PK/PD). In the MAD study, multiple-dose pharmacokinetics and pharmacodynamics of Compound 1 were evaluated in four dose groups administered Compound 1 (40, 80, 120 and 200 mg BID) in the fasted state for 14-days (Table 3). Eight subjects received active drug in each group; eight subjects received placebo in the first dose group (40 mg) and two subjects received placebo in each of the other three dose groups. Two additional cohorts were administered Compound 1 at single doses of 240 mg (fasted subjects) and 120 mg (fed subjects) (Table 3). The two single-dose cohorts each comprised six subjects receiving active drug and two subjects receiving placebo. […]
# [1] = 40 mg BID, Day 14, AP hemolysis
# [2] = 40 mg BID, Days 7 and 14 Combined Analysis, AP hemolysis
# [3] = 80 mg BID, Day 14, AP hemolysis
# [4] = 80 mg BID, Days 7 and 14 Combined Analysis, AP hemolysis
# [5] = 120 mg BID, Day 7, AP hemolysis
# [6] = 120 mg BID, Day 14, AP hemolysis
# [7] = 120 mg BID, Days 7 and 14 Combined Analysis, AP hemolysis
# [8] = 120 mg and 200 mg BID, 14 days, FIG. 13
# [9] = 200 mg BID, Day 7, AP hemolysis
# [10] = 200 mg BID, Day 14, AP hemolysis
# [11] = 200 mg BID, Days 7 and 14 Combined Analysis, AP hemolysis
# [12] = Homo sapiens, sigmoidal model, multiple-dose cohorts, AP hemolysis
structure (smiles),measurement,setting,value
"CC(=O)c1nn(CC(=O)N2[C@H](C(=O)Nc3nc(Br)ccc3C)C[C@@]3(C)C[C@@H]23)c2ccc(-c3cnc(C)nc3)cc12 [Compound 1, (1R,3S,5R)-2-(2-(3-acetyl-5-(2-methylpyrimidin-5-yl)-1H-indazol-1-yl)acetyl)-N-(6-bromo-3-methylpyridin-2-yl)-5-methyl-2-azabicyclo[3.1.0]hexane-3-carboxamide]","% AUEC0-12, Mean","40 mg BID, Day 7, AP hemolysis",49.9%
same,"DURATION0-12 (time with AP inhibition 90% or greater), Mean","40 mg BID, Day 7, AP hemolysis",2.0 h
same,"% AUEC0-12, Mean",[1],61.4%
same,"DURATION0-12 (time with AP inhibition 90% or greater), Mean",[1],2.6 h
same,minimum AP activity following dosing,40 mg BID,4.00%
same,"% AUEC0-12, Mean",[2],55.6%
same,"DURATION0-12 (time with AP inhibition 90% or greater), Mean",[2],2.3 h
same,"% AUEC0-12, Mean","80 mg BID, Day 7, AP hemolysis",87.4%
same,"DURATION0-12 (time with AP inhibition 90% or greater), Mean","80 mg BID, Day 7, AP hemolysis",7.3 h
same,"% AUEC0-12, Mean",[3],87.7%
same,"DURATION0-12 (time with AP inhibition 90% or greater), Mean",[3],8.0 h
same,"% AUEC0-12, Mean",[4],87.6%
same,"DURATION0-12 (time with AP inhibition 90% or greater), Mean",[4],7.6 h
same,mean AP activity,"120 mg BID, 0 h to 10 h on Day 7 and 0 h to 12 h on Day 14",below 10%
same,"% AUEC0-12, Mean",[5],97.5%
same,"DURATION0-12 (time with AP inhibition 90% or greater), Mean",[5],10.9 h
same,"% AUEC0-12, Mean",[6],98.8%
same,"DURATION0-12 (time with AP inhibition 90% or greater), Mean",[6],11.6 h
same,"% AUEC0-12, Mean",[7],98.2%
same,"DURATION0-12 (time with AP inhibition 90% or greater), Mean",[7],11.3 h
same,average reduction in AP hemolysis,[8],over 95%
same,reduction in AP hemolysis for the duration of the study,[8],over 90%
same,serum AP hemolysis activity,"120 mg single dose fed, from 2 h through 6 h",≤ 10%
same,mean AP activity,"200 mg BID, 0 h to 12 h on Days 7 and 14",below 10%
same,"% AUEC0-12, Mean",[9],99.5%
same,"DURATION0-12 (time with AP inhibition 90% or greater), Mean",[9],11.9 h
same,"% AUEC0-12, Mean",[10],98.8%
same,"DURATION0-12 (time with AP inhibition 90% or greater), Mean",[10],11.5 h
same,"% AUEC0-12, Mean",[11],99.1%
same,"DURATION0-12 (time with AP inhibition 90% or greater), Mean",[11],11.7 h
same,time mean inhibition persisted at 90% or greater post-dose,240 mg single dose,at least 12 hours
same,serum AP hemolysis activity,"240 mg single dose fasted, from 1.5 h through 16 h",≤ 10%
same,"AP inhibition, all subjects","240 mg single dose, within two hours of dosing",≥ 90%
same,minimum AP activity following dosing,"Groups 2 through 4 (80, 120, 200 mg BID)",0.00%
same,inhibition at 40 mg,"Homo sapiens, 0 h, 40 mg BID, Days 6 Through 14, AP hemolysis, read-out: AP Inhibition at 0 hr, Mean",28.7%
same,inhibition at 80 mg,"Homo sapiens, 0 h, 80 mg BID, Days 6 Through 14, AP hemolysis, read-out: AP Inhibition at 0 hr, Mean",74.1%
same,inhibition at 120 mg,"Homo sapiens, 0 h, 120 mg BID, Days 6 Through 14, AP hemolysis, read-out: AP Inhibition at 0 hr, Mean",97.2%
same,inhibition at 200 mg,"Homo sapiens, 0 h, 200 mg BID, Days 6 Through 14, AP hemolysis, read-out: AP Inhibition at 0 hr, Mean",97.6%
same,inhibition at 40 mg,"Homo sapiens, 40 mg BID, Day 7, AP hemolysis, read-out: AP Inhibition at 0 hr, Mean",20%
same,inhibition at 40 mg,"Homo sapiens, 40 mg BID, Day 7, AP hemolysis, read-out: AP Inhibition at 12 hr, Mean",17.5%
same,inhibition at 40 mg,"Homo sapiens, 40 mg BID, Day 14, AP hemolysis, read-out: AP Inhibition at 0 hr, Mean",29.2%
same,inhibition at 40 mg,"Homo sapiens, 40 mg BID, Day 14, AP hemolysis, read-out: AP Inhibition at 12 hr, Mean",29%
same,inhibition at 80 mg,"Homo sapiens, 80 mg BID, Day 7, AP hemolysis, read-out: AP Inhibition at 0 hr, Mean",60.5%
same,inhibition at 80 mg,"Homo sapiens, 80 mg BID, Day 7, AP hemolysis, read-out: AP Inhibition at 12 hr, Mean",61.5%
same,inhibition at 80 mg,"Homo sapiens, 80 mg BID, Day 14, AP hemolysis, read-out: AP Inhibition at 0 hr, Mean",79%
same,inhibition at 80 mg,"Homo sapiens, 80 mg BID, Day 14, AP hemolysis, read-out: AP Inhibition at 12 hr, Mean",52%
same,inhibition at 120 mg,"Homo sapiens, 120 mg BID, AP Hemolysis and AP Wieslab assays, read-out: AP inhibition, mean value at Ctrough",> 90%
same,inhibition at 120 mg,"Homo sapiens, 120 mg BID, Day 7, AP hemolysis, read-out: AP Inhibition at 0 hr, Mean",91.8%
same,inhibition at 120 mg,"Homo sapiens, 120 mg BID, Day 7, AP hemolysis, read-out: AP Inhibition at 12 hr, Mean",86%
same,inhibition at 120 mg,"Homo sapiens, 120 mg BID, Day 14, AP hemolysis, read-out: AP Inhibition at 0 hr, Mean",99.7%
same,inhibition at 120 mg,"Homo sapiens, 120 mg BID, Day 14, AP hemolysis, read-out: AP Inhibition at 12 hr, Mean",89.7%
same,inhibition at 200 mg,"Homo sapiens, 200 mg BID, AP Hemolysis and AP Wieslab assays, read-out: AP inhibition, mean value at Ctrough",> 95%
same,inhibition at 200 mg,"Homo sapiens, 200 mg BID, Day 7, AP hemolysis, read-out: AP Inhibition at 0 hr, Mean",95%
same,inhibition at 200 mg,"Homo sapiens, 200 mg BID, Day 7, AP hemolysis, read-out: AP Inhibition at 12 hr, Mean",97.3%
same,inhibition at 200 mg,"Homo sapiens, 200 mg BID, Day 14, AP hemolysis, read-out: AP Inhibition at 0 hr, Mean",98.8%
same,inhibition at 200 mg,"Homo sapiens, 200 mg BID, Day 14, AP hemolysis, read-out: AP Inhibition at 12 hr, Mean",92.8%
same,inhibition at 40 mg,"Homo sapiens, 12 h, 40 mg BID, Days 6 Through 14, AP hemolysis, read-out: AP Inhibition at 12 hr, Mean",23.3%
same,inhibition at 80 mg,"Homo sapiens, 12 h, 80 mg BID, Days 6 Through 14, AP hemolysis, read-out: AP Inhibition at 12 hr, Mean",56.8%
same,inhibition at 120 mg,"Homo sapiens, 12 h, 120 mg BID, Days 6 Through 14, AP hemolysis, read-out: AP Inhibition at 12 hr, Mean",87.8%
same,inhibition at 200 mg,"Homo sapiens, 12 h, 200 mg BID, Days 6 Through 14, AP hemolysis, read-out: AP Inhibition at 12 hr, Mean",95.1%
same,inhibition at 0.08 µg/mL,"Homo sapiens, at Ctrough of about 80 ng/mL, MAD, ex vivo AP activity assays",~90%
same,inhibition at 0.15 µg/mL,"Homo sapiens, at Ctrough of about 150 ng/mL, MAD, ex vivo AP activity assays",> 95%
same,inhibition at 120 mg,"Homo sapiens, po, steady state Ctrough, oral 120 mg BID, read-out: mean alternative pathway inhibition",> 95%
same,EC50,"Homo sapiens, simple Emax model, multiple-dose cohorts, AP hemolysis",0.0191 µg/mL
same,IC90,"Homo sapiens, sigmoidal model, multiple ascending dose, ex-vivo AP hemolysis, FIG. 12, read-out: modeled IC90 drug plasma concentration (90% inhibition level)",0.088 µg/mL
same,EC50,[12],0.0246 µg/mL
same,EC90,[12],0.0881 µg/mL
same,recovery of AP activity to approximately pre-dose levels,"all doses, three days after the last dose",≤ 17 days
same,potency relative to Danicopan (IC90 plasma concentration),"sigmoidal model, FIG. 12",more than 2.5 times
same,time of recovery of AP hemolysis activity to nearly pre-dose levels,single-dose cohorts 240 mg and 120 mg,≤ 48 h
